This is an account of results in BindingDB's records for doi:10.1016/s1074-5521(98)90117-x (Dupont Pharmaceuticals, 1998).

pKi: −log10 of the molar value.

In the experiment the target is HIV-1 protease (Human immunodeficiency virus, UniProt O90785). Description: Protease Inhibtion Assay. To be noted: pH 5.5. From the text:
Protease inhibition fluorescence-based assay using cyclic ureas to inhibit HIV-protease.

HIV-1 protease, sequence (O90785 whole entry): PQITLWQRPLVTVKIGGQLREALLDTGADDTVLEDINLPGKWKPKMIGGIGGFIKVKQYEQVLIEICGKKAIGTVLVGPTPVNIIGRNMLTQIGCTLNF

In turn, `CCCCN1C(=O)N(Cc2ccc3[nH]nc(N)c3c2)[C@H](Cc2ccccc2)[C@H](O)[C@@H](O)[C@H]1Cc1ccccc1` [(4R,5S,6S,7R)-1-(3-Amino-1H-indazol-5-ylmethyl)-4,7-dibenzyl-3-butyl-5,6-dihydroxy-[1,3]diazepan-2-one] had a pKi of 10.68.

Compound `Nc1cccc(CN2C(=O)N(Cc3cccc(N)c3)[C@H](Cc3ccccc3)[C@H](O)[C@@H](O)[C@H]2Cc2ccccc2)c1` showed a pKi of 9.52.

The compound `O=C1N(Cc2ccc(CO)cc2)[C@H](Cc2ccccc2)[C@H](O)[C@@H](O)[C@@H](Cc2ccccc2)N1Cc1ccc(CO)cc1` [(4R,5S,6S,7R)-4,7-dibenzyl-5,6-dihydroxy-1,3-bis({[4-(hydroxymethyl)phenyl]methyl})-1,3-diazepan-2-one] showed a pKi of 9.51.

As to `Nc1n[nH]c2ccc(CN3C(=O)N(Cc4ccc5ccccc5c4)[C@H](Cc4ccccc4)[C@H](O)[C@@H](O)[C@H]3Cc3ccccc3)cc12` [2-Naphthylmethyl cyclic urea], the pKi is 10.64.

`CCCCCN1C(=O)N(Cc2ccc3[nH]nc(N)c3c2)[C@H](Cc2ccccc2)[C@H](O)[C@@H](O)[C@H]1Cc1ccccc1` [n-Pentyl cyclic urea]: the pKi is 10.39.

Consider `CCNc1[nH]nc2ccc(CN3C(=O)N(Cc4ccc5n[nH]c(NCC)c5c4)[C@H](Cc4ccccc4)[C@H](O)[C@@H](O)[C@H]3Cc3ccccc3)cc12` [3-alkylaminoindazole cyclic urea, (Et)], for which the pKi was 10.39.

Take `Nc1n[nH]c2ccc(CN3C(=O)N(Cc4ccc5[nH]nc(N)c5c4)[C@H](Cc4ccccc4)[C@H](O)[C@@H](O)[C@H]3Cc3ccccc3)cc12` [3-Aminoindazole, 2]: the pKi was 11.00.

In the case of `CC(C)Nc1[nH]nc2ccc(CN3C(=O)N(Cc4ccc5n[nH]c(NC(C)C)c5c4)[C@H](Cc4ccccc4)[C@H](O)[C@@H](O)[C@H]3Cc3ccccc3)cc12` [3-alkylaminoindazole cyclic urea, (i-Pr)], the pKi is 10.05.

Take `Nc1n[nH]c2ccc(CN3C(=O)N(CC4CCC4)[C@H](Cc4ccccc4)[C@H](O)[C@@H](O)[C@H]3Cc3ccccc3)cc12` [Cyclobutylmethyl cyclic urea]: the pKi was 10.80.

For `O=C1N(Cc2ccc3[nH]ncc3c2)[C@H](Cc2ccccc2)[C@H](O)[C@@H](O)[C@@H](Cc2ccccc2)N1Cc1ccc2[nH]ncc2c1` [(4R,5S,6S,7R)-4,7-dibenzyl-5,6-dihydroxy-1,3-bis(1H-indazol-5-ylmethyl)-1,3-diazepan-2-one], the pKi is 10.74.

Take `Nc1n[nH]c2ccc(CN3C(=O)N(Cc4ccc5[nH]nc(N)c5c4)[C@H](Cc4ccccc4)[C@H](O)[C@@H](O)[C@H]3Cc3ccccc3)cc12` [3-alkylaminoindazole cyclic urea, (H)]: the negative logarithm of the Ki (pKi) is above 11.00.

As to `CCCNc1[nH]nc2ccc(CN3C(=O)N(Cc4ccc5n[nH]c(NCCC)c5c4)[C@H](Cc4ccccc4)[C@H](O)[C@@H](O)[C@H]3Cc3ccccc3)cc12` [3-alkylaminoindazole cyclic urea, (n-Pr)], the pKi was 9.64.

`CCCCCCN1C(=O)N(Cc2ccc3[nH]nc(N)c3c2)[C@H](Cc2ccccc2)[C@H](O)[C@@H](O)[C@H]1Cc1ccccc1` [n-Hexyl cyclic urea] showed a pKi of 9.89.

Compound `Nc1n[nH]c2ccc(CN3C(=O)N(Cc4ccccc4)[C@H](Cc4ccccc4)[C@H](O)[C@@H](O)[C@H]3Cc3ccccc3)cc12` [DMP850] had a pKi of 10.51.

With `CNc1[nH]nc2ccc(CN3C(=O)N(Cc4ccc5n[nH]c(NC)c5c4)[C@H](Cc4ccccc4)[C@H](O)[C@@H](O)[C@H]3Cc3ccccc3)cc12` [3-alkylaminoindazole cyclic urea, (Me)], the pKi is 10.74. This pKi lies 0.23 log units higher than the previous one.

For the compound `Nc1n[nH]c2ccc(CN3C(=O)N(CC4CC4)[C@H](Cc4ccccc4)[C@H](O)[C@@H](O)[C@H]3Cc3ccccc3)cc12` [Cyclopropylmethyl cyclic urea], the pKi was 10.70.
